The results in this text go back to US8629132B2, “Kinase inhibitors” (Genosco, priority 2009, dated 2014).

Assay [1] has as its system HEL cells. Nature of the assay: Cell viability assay: JAK2 inhibition. As to conditions: for IC50: Homo sapiens, 72-hour incubation, HEL cells expressing JAK2 V617F, read-out: Cell Viability: JAK2 kinase Inhibition HEL (IC50 nM). In kind it is cell-based, human. The method, then: Compounds of the invention are tested for their effects on JAK2 inhibition in human erythroleukemic cell line (HEL) to illustrate potential efficacy at the cellular level. The Janus-associated kinase (JAK) family, comprised of four different protein tyrosine kinases JAK1, JAK2, JAK3, and TYK2, plays an important role in cellular survival, proliferation, and differentiation. V617F, a unique mutation in the JAK2 gene (a valine-to-phenylalanine substitution) results in constitutive kinase activity and promotes deregulated hematopoiesis. JAK2 V617F is frequently detected in myeloproliferative disorders (MPDs), a group of clonal hematopoietic stem cell disorders that include polycythemia vera (PV), essential thrombocythemia (ET), and idiopathic myelofibrosis (IMF), all of which have the potential to transform to acute myeloid leukemia. JAK2 V617F is constitutively phosphorylated and able to activate downstream signaling in the absence of cytokine stimulation.
Compounds of the present invention were tested for their effects on viability of HEL cells. For cell viability assay, HEL cells expressing human JAK2 V617F were obtained from the American Type Culture Collection (ATCC, Manassas, Va.). This cell line was maintained with Roswell Park Memorial Institute (RPMI) medium (HyClone™) containing 10 bovine calf serum (BCS; Hyclone™) supplemented iron. The HEL cells were seeded at 2×10^4 cells in 96 well culture plates, and serially diluted compound was then added. After a 72-hour incubation period at 37° C., viability of cells was measured using the ATPLite 1 step assay (Perkin-Elmer™) that is based on the quantification of ATP from viable cells. CellTiter Aqueous assay (Promega™) was also performed in parallel as an orthogonal assay. IC50 values were calculated using nonlinear regression and defined as the concentration needed for a 50 reduction in luminescence or absorbance treated versus untreated control cells (Prism™ Software).

The target in assay [2] is T1, RET (Homo sapiens, UniProt P07949).
T1 construct: truncated human FAK, RET, FLT3, JAK2, and LRRK2; purchased Carna Biosciences
T1 sequence (P07949 658-1114 limits assumed): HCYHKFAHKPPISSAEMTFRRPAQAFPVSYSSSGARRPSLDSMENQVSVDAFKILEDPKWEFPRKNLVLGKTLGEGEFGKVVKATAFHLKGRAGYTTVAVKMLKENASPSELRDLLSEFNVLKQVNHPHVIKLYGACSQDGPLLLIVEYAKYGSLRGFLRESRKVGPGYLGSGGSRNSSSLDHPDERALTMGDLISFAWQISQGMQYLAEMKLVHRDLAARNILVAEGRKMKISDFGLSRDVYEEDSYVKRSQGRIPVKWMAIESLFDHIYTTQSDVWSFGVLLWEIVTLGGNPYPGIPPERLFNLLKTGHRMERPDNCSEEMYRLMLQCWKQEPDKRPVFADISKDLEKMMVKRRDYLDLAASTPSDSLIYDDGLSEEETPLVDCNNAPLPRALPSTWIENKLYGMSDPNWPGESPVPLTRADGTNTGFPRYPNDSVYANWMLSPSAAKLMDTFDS
The assay is described as follows: Kinase inhibition assay: RET. In kind it is biochemical. On the procedure:
(§1) Compounds of the present invention were tested for their capacity to inhibit a kinase panel which includes, but are not limited to, spleen tyrosine kinase (SYK), zeta-chain-associated protein kinase 70 (ZAP70), PTK2B protein tyrosine kinase 2 (PYK2), focal adhesion kinase (FAK), provirus integration of maloney kinase 1 (PIM1), rearranged during transfection kinase (RET), Fms-like tyrosine kinase 3 (FLT3), Janus kinase 2 (JAK2), and leucine-rich repeat kinase 2 (LRRK2).
(§2) Inhibition of SYK, ZAP70, PYK2, FAK, PIM1, RET, FLT3, JAK2 and LRRK2 Kinase Activity
(§3) Compounds of the invention were initially diluted to 10 mM in 100% DMSO (CALBIOCHEM™) for storage and made into kinase buffer solution to create a compound concentration ranging from 1 uM and 10 uM. Serial dilutions of compounds of the invention were dispensed into a 96-well plate (GREINER BIOSCIENCES™) at 6 μL each. Purified full-length human SYK, ZAP70, PIM1, PYK2 and truncated human FAK, RET, FLT3, JAK2, and LRRK2 (CARNA BIOSCIENCES™) were diluted in kinase buffer and added to the compound solutions and pre-incubated for 30 minutes at room temperature (1 hour for PYK2). […] The reaction mixture was incubated for 1 hour (2 hours for PYK2). Following the incubation, the stop solution made with EDTA, water, and Lance detection buffer ([…]™) was added (12μL each) to stop phosphorylation. […] The IC50 value of test compound was calculated at Gradpad Prism 5 unless specified otherwise.

Assay [3] addresses T2, LRRK2 (Homo sapiens, UniProt Q5S007).
T2 construct: truncated human FAK, RET, FLT3, JAK2, and LRRK2; purchased Carna Biosciences
Nature of the assay: Kinase inhibition assay: LRRK2. In kind it is biochemical. As to conditions: for inhibition at 1 µM: at 1 μM concentration. On the procedure:
as §1, §2, §3

Assay [4] has as its target T3, FLT3 (Homo sapiens, UniProt P36888).
T3 construct: truncated human FAK, RET, FLT3, JAK2, and LRRK2; purchased Carna Biosciences
T3 sequence (P36888 564-993 limits assumed): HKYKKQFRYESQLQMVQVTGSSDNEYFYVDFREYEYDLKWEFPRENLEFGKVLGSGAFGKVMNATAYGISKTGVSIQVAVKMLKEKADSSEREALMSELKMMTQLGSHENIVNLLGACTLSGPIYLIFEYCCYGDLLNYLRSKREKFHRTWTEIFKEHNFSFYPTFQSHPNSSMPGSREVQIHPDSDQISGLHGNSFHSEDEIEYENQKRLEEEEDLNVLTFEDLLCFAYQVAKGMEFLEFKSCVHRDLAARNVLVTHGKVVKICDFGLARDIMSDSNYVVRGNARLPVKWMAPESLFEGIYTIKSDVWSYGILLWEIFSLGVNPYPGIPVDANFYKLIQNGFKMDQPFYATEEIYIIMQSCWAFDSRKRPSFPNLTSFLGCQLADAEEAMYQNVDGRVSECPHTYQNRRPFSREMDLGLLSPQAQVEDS
The assay is described as follows: Kinase inhibition assay: FLT3. In kind it is biochemical. On the procedure: as §1, §2, §3

Assay [5] concerns MV4-11 cells. The assay is described as follows: Cell viability assay: FLT3-ITD-positive cells. In kind it is cell-based, human. As to conditions: for inhibition level compared with Vandetinib and Sunitinib: FLT3 ITD induced cancer cell line (MV4-11); for IC50: Homo sapiens, MV4-11, 72-hour incubation, read-out: Viability of FLT3-ITD Induced Cancer Cell Line MV-4-11 (IC50 nM). The method, then: Compounds of the invention were tested for their effects on inhibition of FLT3-ITD in human acute leukemia cell line (MV4-11). FLT3 is primarily expressed in immature hematopoietic progenitor as well as in mature myeloid cells. It belongs to type III receptor tyrosine kinase (RTK) family including KIT, FMS, and PDGFR. It is activated by binding to FL, which leads to increased kinase activity and activation of downstream signaling pathway including STATS, Ras, and PI3Kinase.
Compounds of the invention were tested for cell viability effect on MV4-11 cells. For cell viability assay, MV4-11 cells expressing human FLT3-ITD were obtained from the American Type Culture Collection (ATCC, Manassas, Va.). This cell line was maintained with an Roswell Park Memorial Institute (RPMI) medium (HyClone™) containing 10 bovine calf serum (BCS; Hyclone™) supplemented iron. The MV4-11 cells were seeded at 2×10^4 cells in 96-well culture plates, and serially diluted compound was then added. After a 72-hour incubation period at 37° C., cell viability was measured using the ATPLite 1 step assay (Perkin-Elmer™) that is based on the quantification of ATP from viable cells. CellTiter Aqueous assay (Promega™) was also performed in parallel as an orthogonal assay. IC50 values were calculated using nonlinear regression and defined as the concentration needed for a 50 reduction in luminescence or absorbance treated versus untreated control cells (Prism™ Software).

The target of assay [6] is JAK2 (Homo sapiens, UniProt O60674). Nature of the assay: Kinase inhibition assay: JAK2. In kind it is biochemical. More on the design: truncated human FAK, RET, FLT3, JAK2, and LRRK2; purchased Carna Biosciences. The method, then:
as §1, §2, §3

Assay [7] has as its target T4, FAK (Homo sapiens, UniProt Q05397).
T4 construct: truncated human FAK, RET, FLT3, JAK2, and LRRK2; purchased Carna Biosciences
Nature of the assay: Kinase inhibition assay: FAK. As to conditions: at 1 μM concentration. In kind it is biochemical. On the procedure: as §1, §2, §3

Assay [8] deals with T5, SYK (Homo sapiens, UniProt P43405).
T5 construct: Purified full-length human SYK, ZAP70, PIM1, PYK2; purchased Carna Biosciences
Nature of the assay: Kinase inhibition assay: SYK. In kind it is biochemical. As to conditions: at 1 μM concentration. On the procedure: as §1, §2, §3

Assay [9] has as its target T6, PYK2 (Homo sapiens, UniProt Q14289).
T6 construct: Purified full-length human SYK, ZAP70, PIM1, PYK2; purchased Carna Biosciences
Nature of the assay: Kinase inhibition assay: PYK2. In kind it is biochemical. As to conditions: at 1 μM concentration. The method, then: as §1, §2, §3

Molecules are shown by their SMILES.

Sequence of JAK2 (O60674 826-1132 limits assumed): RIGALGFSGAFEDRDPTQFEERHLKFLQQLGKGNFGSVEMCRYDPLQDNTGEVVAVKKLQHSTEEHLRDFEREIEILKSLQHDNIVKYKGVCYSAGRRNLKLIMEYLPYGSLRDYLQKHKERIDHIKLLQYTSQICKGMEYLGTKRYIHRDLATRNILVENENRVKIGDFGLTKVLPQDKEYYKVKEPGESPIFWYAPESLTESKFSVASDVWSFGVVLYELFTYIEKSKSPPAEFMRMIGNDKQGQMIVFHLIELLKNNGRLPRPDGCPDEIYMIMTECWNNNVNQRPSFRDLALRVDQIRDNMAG
T2 sequence (Q5S007 970-2527 limits assumed): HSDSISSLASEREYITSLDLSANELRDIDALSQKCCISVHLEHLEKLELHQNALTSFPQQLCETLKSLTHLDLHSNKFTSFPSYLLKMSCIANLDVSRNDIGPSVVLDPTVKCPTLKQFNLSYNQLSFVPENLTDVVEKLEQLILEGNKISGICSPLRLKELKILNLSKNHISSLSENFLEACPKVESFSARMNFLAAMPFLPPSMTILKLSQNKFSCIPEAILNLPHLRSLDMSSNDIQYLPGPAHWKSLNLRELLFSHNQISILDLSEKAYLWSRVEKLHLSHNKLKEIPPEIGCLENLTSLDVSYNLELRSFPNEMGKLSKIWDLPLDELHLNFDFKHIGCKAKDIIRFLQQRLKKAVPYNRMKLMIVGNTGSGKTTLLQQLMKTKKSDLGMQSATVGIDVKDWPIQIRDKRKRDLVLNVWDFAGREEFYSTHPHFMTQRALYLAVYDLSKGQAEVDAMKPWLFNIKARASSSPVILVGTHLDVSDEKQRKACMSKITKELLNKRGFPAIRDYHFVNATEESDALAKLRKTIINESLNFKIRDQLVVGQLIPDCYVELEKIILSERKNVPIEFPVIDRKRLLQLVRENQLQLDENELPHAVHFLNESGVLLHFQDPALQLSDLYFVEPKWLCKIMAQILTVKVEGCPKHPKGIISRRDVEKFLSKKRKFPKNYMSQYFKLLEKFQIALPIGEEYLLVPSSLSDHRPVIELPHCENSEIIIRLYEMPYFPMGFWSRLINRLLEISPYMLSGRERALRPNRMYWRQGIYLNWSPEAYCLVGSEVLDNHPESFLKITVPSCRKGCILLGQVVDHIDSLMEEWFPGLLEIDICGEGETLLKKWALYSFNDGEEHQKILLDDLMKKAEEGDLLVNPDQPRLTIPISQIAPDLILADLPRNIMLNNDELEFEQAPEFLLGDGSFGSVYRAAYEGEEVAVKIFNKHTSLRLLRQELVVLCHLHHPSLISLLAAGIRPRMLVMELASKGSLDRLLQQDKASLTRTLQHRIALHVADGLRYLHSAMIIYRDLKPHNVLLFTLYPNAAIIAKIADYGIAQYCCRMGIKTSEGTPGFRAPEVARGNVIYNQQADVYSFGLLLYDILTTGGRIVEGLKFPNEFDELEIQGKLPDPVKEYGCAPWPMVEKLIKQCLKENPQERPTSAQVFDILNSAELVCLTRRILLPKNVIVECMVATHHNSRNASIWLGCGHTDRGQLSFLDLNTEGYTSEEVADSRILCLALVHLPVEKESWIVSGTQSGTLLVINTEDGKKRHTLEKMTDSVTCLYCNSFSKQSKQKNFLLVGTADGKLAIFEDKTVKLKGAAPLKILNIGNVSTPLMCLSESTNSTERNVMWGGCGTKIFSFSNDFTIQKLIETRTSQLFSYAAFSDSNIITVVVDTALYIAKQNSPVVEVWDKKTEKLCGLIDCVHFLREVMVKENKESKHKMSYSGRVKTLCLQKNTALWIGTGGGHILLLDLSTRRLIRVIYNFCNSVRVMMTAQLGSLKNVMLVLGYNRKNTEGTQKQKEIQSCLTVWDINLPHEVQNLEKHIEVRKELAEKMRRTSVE
T4 sequence (Q05397 376-1052 limits assumed): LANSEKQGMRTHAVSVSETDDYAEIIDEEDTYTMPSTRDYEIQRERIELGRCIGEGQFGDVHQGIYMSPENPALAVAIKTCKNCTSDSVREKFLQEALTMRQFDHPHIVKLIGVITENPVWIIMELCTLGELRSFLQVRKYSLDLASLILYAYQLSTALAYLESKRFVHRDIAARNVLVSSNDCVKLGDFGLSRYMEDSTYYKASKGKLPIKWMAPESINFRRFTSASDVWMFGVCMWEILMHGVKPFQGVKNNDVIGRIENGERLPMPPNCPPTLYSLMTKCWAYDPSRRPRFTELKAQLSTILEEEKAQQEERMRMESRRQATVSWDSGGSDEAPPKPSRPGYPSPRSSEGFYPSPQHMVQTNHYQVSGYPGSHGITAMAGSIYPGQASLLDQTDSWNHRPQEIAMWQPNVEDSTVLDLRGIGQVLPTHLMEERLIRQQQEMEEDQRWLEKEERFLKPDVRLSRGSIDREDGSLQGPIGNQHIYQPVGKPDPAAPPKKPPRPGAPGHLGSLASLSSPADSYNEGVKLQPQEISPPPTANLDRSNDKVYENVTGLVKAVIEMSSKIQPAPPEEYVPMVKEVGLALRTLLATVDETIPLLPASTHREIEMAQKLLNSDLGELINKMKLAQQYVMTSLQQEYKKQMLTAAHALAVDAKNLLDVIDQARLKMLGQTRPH
T6 sequence (Q14289 whole entry): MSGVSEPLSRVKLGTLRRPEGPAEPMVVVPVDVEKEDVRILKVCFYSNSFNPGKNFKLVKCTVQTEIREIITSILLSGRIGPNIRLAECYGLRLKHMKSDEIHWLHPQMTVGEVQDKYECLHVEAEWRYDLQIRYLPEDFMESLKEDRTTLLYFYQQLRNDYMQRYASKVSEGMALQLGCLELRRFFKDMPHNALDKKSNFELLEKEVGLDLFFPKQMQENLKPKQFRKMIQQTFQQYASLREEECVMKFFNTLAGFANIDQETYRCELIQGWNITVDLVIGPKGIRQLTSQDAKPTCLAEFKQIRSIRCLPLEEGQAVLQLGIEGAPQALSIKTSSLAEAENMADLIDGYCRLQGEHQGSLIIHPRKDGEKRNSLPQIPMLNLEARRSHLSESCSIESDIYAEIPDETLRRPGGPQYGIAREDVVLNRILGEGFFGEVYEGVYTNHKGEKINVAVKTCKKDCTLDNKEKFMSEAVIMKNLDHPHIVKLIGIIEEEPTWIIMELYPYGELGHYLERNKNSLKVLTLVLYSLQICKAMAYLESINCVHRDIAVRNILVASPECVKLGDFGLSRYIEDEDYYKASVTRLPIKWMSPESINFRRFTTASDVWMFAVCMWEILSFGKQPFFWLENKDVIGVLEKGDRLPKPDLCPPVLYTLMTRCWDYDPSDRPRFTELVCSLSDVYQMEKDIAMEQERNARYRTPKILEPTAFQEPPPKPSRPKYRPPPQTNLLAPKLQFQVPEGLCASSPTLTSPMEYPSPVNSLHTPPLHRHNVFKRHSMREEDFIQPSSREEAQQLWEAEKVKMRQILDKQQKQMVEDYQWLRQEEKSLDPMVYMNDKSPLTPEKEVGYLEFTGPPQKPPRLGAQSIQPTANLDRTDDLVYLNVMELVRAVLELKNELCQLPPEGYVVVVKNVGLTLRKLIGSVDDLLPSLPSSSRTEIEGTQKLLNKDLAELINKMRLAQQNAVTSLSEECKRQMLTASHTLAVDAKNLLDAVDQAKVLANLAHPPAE

For `CNC(=O)c1cc(Oc2ccc(NC(=O)Nc3ccc(Cl)c(C(F)(F)F)c3)cc2)ccn1` [Sorafenib, reference compound], the IC50 (usually the concentration that gives 50% inhibition) in [1] was > 1000 nM.
Regarding `Cc1cc(C)cc(Nc2nccc(-n3cc(C(=O)N(C)CCO)c(C)n3)n2)c1` [Compound 29, 1-(2-(3,5-dimethylphenylamino)pyrimidin-4-yl)-N-(2-hydroxyethyl)-N,3-dimethyl-1H-pyrazole-4-carboxamide], the inhibition (usually the percentage by which the read-out fell short of the control) at 1 µM in [2] (at 1 μM concentration) turned out to be 42%; in assay [3], 31.4%; in assay [4] (at 1 μM concentration), 53%.
On to `COc1cc(Nc2ncc(C)c(-n3cc(C)c(CN4CC(O)C4)c3)n2)cc(OC)c1OC` [Compound 91, 1-((4-methyl-1-(5-methyl-2-(3,4,5-trimethoxyphenylamino)pyrimidin-4-yl)-1H-pyrrol-3-yl)methyl)azetidin-3-ol], for which the half-inhibitory concentration (IC50) in assay [2] stood at 0.0052 µM; in assay [5], 1.5 nM; in assay [6], 0.0365 µM; in [3], 0.424 µM; in assay [4] it was 0.0004 µM. In assay [5], the “inhibition level compared with Vandetinib and Sunitinib” value is “greater than those exhibited by Vandetinib and Sunitinib”.
As for `COc1cc(Nc2ncc(C)c(-n3cc(C)c(CN4CC(OC(=O)C(C)(C)C)C4)c3)n2)cc(OC)c1OC` [Compound 93, 1-((4-methyl-1-(5-methyl-2-(3,4,5-trimethoxyphenylamino)pyrimidin-4-yl)-1H-pyrrol-3-yl)methyl)azetidin-3-yl pivalate], the IC50 came to 0.0761 µM in assay [2], 0.6 nM in assay [5], 0.219 µM in assay [6] and 0.0117 µM in assay [4]. Besides, the “inhibition level compared with Vandetinib and Sunitinib” value in assay [5] was “greater than those exhibited by Vandetinib and Sunitinib”.
With `Cc1cc(C)cc(Nc2nccc(-n3cc(C)c(CN4CC[C@@H](O)C4)c3)n2)c1` [Compound 41, (R)-1-((1-(2-(3,5-dimethylphenylamino)pyrimidin-4-yl)-4-methyl-1H-pyrrol-3-yl)methyl)pyrrolidin-3-ol], the inhibition at 1 µM is 13.9% in assay [7], 99.3% in assay [8] and 30.7% in assay [9].
In assay [2], `Cc1cc(C)cc(Nc2nccc(-n3cc(C(=O)N4CC[C@@H](O)C4)c(C)n3)n2)c1` [Compound 32, (R)-(1-(2-(3,5-dimethylphenylamino)pyrimidin-4-yl)-3-methyl-1H-pyrazol-4-yl)(3-hydroxypyrrolidin-1-yl)methanone] had an IC50 of 0.0513 µM. The inhibition at 1 µM in assay [6] (at 1 μM concentration) was determined as 40%; in [3] it was 44.3%.
`Cc1cn(-c2nc(Nc3ccc(N4CC[C@H](O)C4)c(C)c3)ncc2C)cc1CO` [Compound 24, (S)-1-(4-(4-(3-(hydroxyl-methyl)-4-methyl-1H-pyrrol-1-yl)-5-methyl-pyrimidin-2-ylamino)-2-methylphenyl)pyrrolidin-3-ol]: the 50% inhibitory concentration (IC50) in assay [2] worked out at 0.0404 µM; in assay [6], 0.0016 µM; in assay [4] it was 0.0068 µM; in assay [1] it was 229 nM. Besides, in assay [1] (HEL), the “inhibition level compared with Sorafenib” value is “greater than those exhibited by Sorafenib”.
Turning to `COc1cc(Nc2ncc(C)c(-n3cc(C)c(CN4CCCN(C(=O)C(C)(C)C)CC4)c3)n2)cc(OC)c1OC` [Compound 97, 2,2-dimethyl-1-(4-((4-methyl-1-(5-methyl-2-(3,4,5-trimethoxyphenylamino)pyrimidin-4-yl)-1H-pyrrol-3-yl)methyl)-1,4-diazepan-1-yl)propan-1-one], the half-maximal inhibitory concentration (IC50) turned out to be 0.0358 µM in assay [2], 79.2 nM in [5], 0.0651 µM in assay [6] and 0.0036 µM in assay [4].
